Source: patent US5216015A, “Compounds having hypocholesterolemic properties” (priority 1991, dated 1993)
Where two headings read alike, the source gives them in different places.

Assays:
[1] = test system: sterol synthesis; settings: et al., cited from earlier work
[2] = test system: HMG-CoA reductase; test: HMGR Screen: inhibition of HMG-CoA reductase solubilized from rat liver microsomes; assay type: biochemical
Description: (§1) The effectiveness of the compounds of this invention as hypocholesterolemic agents may be determined by the following pharmacologic tests which evaluate the HMG-CoA reductase inhibitory activity of said compounds. The HMGR Screen and Ex Vivo Fasted procedures are standard test procedures; the HMG-CoA reductase inhibitory results generally correlate with the HMG-CoA reductase inhibitory activity found in human patients.
Male rats were acclimated to an alternate 12 hours light-dark cycle for a period of 2-3 weeks. The animals, weighing 180-230 g, were fed ad libitum a rat chow containing 2% cholestyramine for 5 days prior to sacrifice at the mid-dark period. Liver microsomes were prepared and HMG-CoA reductase enzyme was solubilized from the microsomes by freeze-thaw manipulation in high ionic strength buffer. The enzyme preparation was stored at -80° C. in 300 μl portion samples. Prior to use, the enzyme was activated by warming at 37° C. for 30 minutes. A reaction mixture was prepared which consisted of, in a volume of 240 μl: 0.14M potassium phosphate buffer (pH 7.0); 0.18M KCl; 3.5 mM EDTA; 10 mM dithiothreitol; 0.1 mg/ml BSA; 30,000 cpm of [^14 C] HMG-CoA; 20 μM HMG-CoA, and 200 μg of activated enzyme with and without compounds of the present invention (in 10 μl DMSO). After 5 minutes incubation at 37° C. the reaction was initiated with 0.2 mM NADPH. The final assay volume was 300 μl. The reaction was then terminated with 100 μl of 1N HCl. After an additional incubation for 15 minutes at 37° C. to allow for complete lactonization of the product, the mixture was diluted with 3 ml distilled water. The diluted mixture was then poured over a 0.7×1.4 cm column containing 100-200 mesh Bio-Rex ion-exchange resin (chloride form of Bio-Rad) which was equilibrated with distilled water. With this resin the unreacted [^14 C] HMG-CoA was adsorbed and the product [^14 C] mevalonolactone was eluted (80% recovery) directly into scintillation vials. After the addition of 10 ml of Aquasol, radioactivities of the samples were measured in a scintillation counter. Results are reported as % inhibition of the enzyme in the presence of a given concentration of a compound of the present invention as compared with the activity of the enzyme in the absence of said compound, i.e., in the absence of inhibitor.

[3] = test system: cholesterol synthesis; test: Ex-Vivo Fasted: inhibition of cholesterol synthesis in liver slices after oral dosing of fasted rats; settings: Rattus norvegicus, 1 h, p.o. (Na+ salt), livers removed after one hour
Excerpt: as §1
Rats of 170-210 g were maintained on a low cholesterol diet for one week prior to use. Compounds of the present invention (identified in the table below) were given orally in 0.5% methocel to fasted (fasted for 16 hours) rats. After one hour the rats were decapitated and their livers removed and transferred to chilled oxygenated Kreb's-Ringer-bicarbonate buffer (pH 7.4). The livers were then chopped into 0.5 mm slices using a McIlwain tissue chopper, and were suspended in the same buffer. Aliquots of the suspension containing 100 mg tissue were pipetted to culture tubes which contained [^14 C] sodium octanoate (2 μCi, 3 mM). The tubes were gassed with 95% O2 /CO2, capped and incubated at 37° C. in a shaking water bath at 150 oscillation/min. for two hours. The final assay volume was 1.0 ml. […] After visualization with iodine the cholesterol spots were cut and counted with liquid scintillation fluid. […]

[4] = test system: HMG-CoA reductase; settings: Brown, et al., J. Biol. Chem. 249 (22), 7306 (1974); cited from earlier work
[5] = Schroepfer, et al., Proc. Natl. Acad. Sci., USA 81, 6861-6865 (1984); cited from earlier work
[6] = Kandutsch, J. Biol. Chem. 248 (24), 8408 (1974)
[7] = Schroepfer, J. Biol. Chem. 252 (24), 8975 (1977)

## CC(C)CCC[C@@H](C)[C@H]1CC[C@H]2[C@@H]3[C@@H](O)C=C4C[C@@H](O)CC[C@]4(C)[C@H]3CC[C@]12C [7β-hydroxycholesterol]
[1]; [6]
  inhibition of sterol synthesis: inhibit sterol synthesis

## CCC(C)(C)C(=O)O[C@H]1C[C@H]2[C@@H](CC[C@@H]3C[C@H](O)CC[C@@]32C)[C@@H]2CC[C@H]([C@H](C)CC3CC(O)CC(=O)O3)[C@@]12C (stereo partly drawn) [Example 2, 12α-(2,2-dimethyl)butyryloxy-3α-hydroxy-17β-[3-(4(R)-hydroxy-3,4,5,6-tetrahydro-2H-pyran-2-on-6(R)-yl)-2(R)-2-propyl]-5β-androstane and 12α-(2,2-dimethyl)butyryloxy-3α-hydroxy-17β-[3-(4(S)-hydroxy-3,4,5,6-tetrahydro-2H-pyran-2-on-6(S)-yl)-2(R)-2-propyl]-5β-androstane]
[2]; Lactone Form, at 30 μM
  HMGR Screen % Inhibition: 33%
[2]; Ring-opened/Sodium Salt, at 352 nM
  HMGR Screen % Inhibition: 50%

## CO[C@H]1CC[C@@]2(C)[C@@H](CC=C3[C@@H]2CC[C@]2(C)[C@@H]([C@H](C)CCCC(C)C)C[C@@H](O)[C@@]32C)C1 [3β-methoxy-14α-methyl-5α-cholest-7-en-15β-ol]
[1]; [7]
  inhibition of sterol synthesis: potent inhibitors of sterol synthesis

## CC(C)CCC[C@@H](C)[C@H]1CC(=O)[C@@]2(C)C3=CC[C@H]4C[C@@H](O)CC[C@]4(C)[C@H]3CC[C@]12C [14α-methyl-5α-cholest-7-en-3β-ol-15-one]
[1]; [7]
  inhibition of sterol synthesis: potent inhibitors of sterol synthesis

## CC(C)CCC[C@@H](C)[C@H]1CC[C@H]2[C@@H]3[C@H](O)C=C4C[C@@H](O)CC[C@]4(C)[C@H]3CC[C@]12C [7α-hydroxycholesterol]
[1]; [6]
  inhibition of sterol synthesis: inhibit sterol synthesis

## CC(C)CCC[C@@H](C)[C@H]1C[C@@H](O)C2=C3CC[C@H]4C[C@@H](O)CC[C@]4(C)[C@H]3CC[C@@]21C [5α-cholest-8(14)-en-3β,15β-diol]
[1]; [7]
  inhibition of sterol synthesis: potent inhibitors of sterol synthesis

## CC(C)CCC[C@@H](C)[C@H]1CC(O)C2=C3C(O)C[C@H]4C[C@@H](O)CC[C@]4(C)[C@H]3CC[C@@]21C (stereo partly drawn) [5α-cholest-8(14)-en-3β,7.xi.,15.xi.-triol]
[1]; [7]
  inhibition of sterol synthesis: potent inhibitors of sterol synthesis

## CCC(C)(C)C(=O)O[C@H]1C[C@H]2C(=C3CC[C@H]([C@H](C)CC4CC(O)CC(=O)O4)[C@]31C)CC[C@@H]1C[C@H](O)CC[C@@]12C (stereo partly drawn) [Example 4, 12α-(2,2-dimethyl)butyryloxy-3α-hydroxy-17β-[3-(4(R)-hydroxy-3,4,5,6-tetrahydro-2H-pyran-2-on-6(R)-yl)-2(R)-2-propyl]-5β-androst-8(14)ene and 12α-(2,2-dimethyl)butyryloxy-3α-hydroxy-17β-[3-(4(S)-hydroxy-3,4,5,6-tetrahydro-2H-pyran-2-on-6(S)-yl)-2(R)-2-propyl]-5β-androst-8(14)-ene]
[2]; Lactone Form, at 3 μM
  HMGR Screen % Inhibition: 19%
[2]; Ring-opened/Sodium Salt, at 119 nM
  HMGR Screen % Inhibition: 50%

## CCC(C)(C)C(=O)O[C@H]1C[C@H]2C(=C3CC[C@H](CC[C@@H]4C[C@@H](O)CC(=O)O4)[C@]31C)CC[C@@H]1C[C@H](O)CC[C@@]12C [Example 5, 12α-(2,2-dimethyl)butyryloxy-3α-hydroxy-17β-[2-(4(R)-hydroxy-3,4,5,6-tetrahydro-2H-pyran-2-on-6(R)-yl)-ethyl]-5β-androst-8(14)-ene]
[2]; Lactone Form, at 1.6 μM
  HMGR Screen % Inhibition: 50%
[2]; Ring-opened/Sodium Salt, at 16.9 nM
  HMGR Screen % Inhibition: 50%
[3]
  inhibition at 3 mg/kg: 47%

## CC(C)CCC[C@@H](C)[C@H]1C[C@@H](O)[C@@]2(C)C3=CC[C@H]4C[C@@H](O)CC[C@]4(C)[C@H]3CC[C@]12C [14α-methyl-5α-cholest-7-en-3β,15β-diol]
[1]; [7]
  inhibition of sterol synthesis: potent inhibitors of sterol synthesis

## CCC(C)(C)C(=O)O[C@H]1C[C@H]2[C@@H](CC[C@@H]3C[C@H](O)CC[C@@]32C)[C@@H]2CCC=C(/C=C/C3CC(O)CC(=O)O3)[C@@]12C (stereo partly drawn) [Example 1, 12α-(2,2-dimethyl)butyryloxy-3α-hydroxy-17a-[E-2-(4(R)-hydroxy-3,4,5,6-tetrahydro-2H-pyran-2-on-6(S)-yl)ethenyl]-D-homo-5β-androst-17-ene and 12α-(2,2-dimethyl)butyryloxy-3α-hydroxy-17a-[E-2-(4(S)-hydroxy-3,4,5,6-tetrahydro-2H-pyran-2-on-6(R)-yl)ethenyl]-D-homo-5β-androst-17-ene]
[2]; Lactone Form, at 5.9 μM
  HMGR Screen % Inhibition: 50%
[2]; Ring-opened/Sodium Salt, at 228 nM
  HMGR Screen % Inhibition: 50%

## CC(C)CCC[C@@H](C)[C@H]1C[C@@H](O)[C@@H]2C3=CC[C@H]4C[C@@H](O)CC[C@]4(C)[C@H]3CC[C@]12C [5α,14β-cholest-7-en-3β,15β-diol]
[1]; [7]
  inhibition of sterol synthesis: potent inhibitors of sterol synthesis

## CC(C)CCC[C@@H](C)[C@H]1C[C@H](O)[C@@]2(C)C3=CC[C@H]4C[C@@H](O)CC[C@]4(C)[C@H]3CC[C@]12C [14α-methyl-5α-cholest-7-en-3β,15α-diol]
[1]; [7]
  inhibition of sterol synthesis: potent inhibitors of sterol synthesis

## CC(C)CCC[C@@H](C)[C@H]1CC[C@H]2[C@@H]3C(=O)C=C4C[C@@H](O)CC[C@]4(C)[C@H]3CC[C@]12C [7-ketocholesterol]
[1]; [6]
  inhibition of sterol synthesis: inhibit sterol synthesis
[4]
  suppression of HMG-CoA reductase activity: suppress HMG-CoA reductase activity

## CO[C@H]1CC[C@@]2(C)[C@@H](CC=C3[C@@H]2CC[C@]2(C)[C@@H]([C@H](C)CCCC(C)C)C[C@H](O)[C@@]32C)C1 [3β-methoxy-14α-methyl-5α-cholest-7-en-15α-ol]
[1]; [7]
  inhibition of sterol synthesis: potent inhibitors of sterol synthesis

## CCC(C)(C)C(=O)O[C@H]1C[C@H]2[C@@H]([C@H](OC(C)=O)C[C@@H]3C[C@H](O)CC[C@@]32C)[C@@H]2CC[C@H]([C@H](C)CC3CC(O)CC(=O)O3)[C@@]12C (stereo partly drawn) [Example 3, 7α-acetoxy-12α-(2,2-dimethyl)butyryloxy-3α-hydroxy-17β-[3-(4(R)-hydroxy-3,4,5,6-tetrahydro-2H-pyran-2-on-6(R)-yl)-2(R)-2-propyl]-5β-androstane and 7α-acetoxy-12α-(2,2-dimethyl)butyryloxy-3α-hydroxy-17β-[3-(4(S)-hydroxy-3,4,5,6-tetrahydro-2H-pyran-2-on-6(S)-yl)-2(R)-2-propyl]-5β-androstane]
[2]; Lactone Form, at 30 μM
  HMGR Screen % Inhibition: 23%
[2]; Ring-opened/Sodium Salt, at 300 nM
  HMGR Screen % Inhibition: 21%

## CC(C)CCC[C@@H](C)[C@H]1C[C@H](O)[C@@H]2C3=CC[C@H]4C[C@@H](O)CC[C@]4(C)[C@H]3CC[C@]12C [5α,14β-cholest-7-en-3β,15α-diol]
[1]; [7]
  inhibition of sterol synthesis: potent inhibitors of sterol synthesis

## CC(C)CCC[C@@H](C)[C@H]1CC(=O)C2=C3CC[C@H]4C[C@@H](O)CC[C@]4(C)[C@H]3CC[C@@]21C [5α-cholest-8(14)-en-3β-ol-15-one]
[1]; [7]
  inhibition of sterol synthesis: potent inhibitors of sterol synthesis
[5]
  hypocholesterolemic activity: significant hypocholesterolemic acitivity

## CC(C)CCC[C@@H](C)[C@H]1C[C@H](O)C2=C3CC[C@H]4C[C@@H](O)CC[C@]4(C)[C@H]3CC[C@@]21C [5α-cholest-8(14)-en-3β,15α-diol]
[1]; [7]
  inhibition of sterol synthesis: potent inhibitors of sterol synthesis
